Test results from patent US5912183A, “Peptide inhibitors of mitogenesis and motogenesis” (Pharmacia & Upjohn S.p.A., priority 1993, dated 1999).
Residues, ends and D or L forms follow the SMILES beside them.

Experiments:
[1] = molecular target: T1, binding of p85 to HGF/SF receptor (Bos taurus, UniProt P23727); assay: Competition of phosphopeptides with p85 for association with immobilized recombinant HGF/SF receptor (in vitro kinase assay readout); design: species or system human; conditions: phosphopeptide 10 μM; p85 from Sf9 lysates; FIG. 1
T1 construct: made in house; host or cells: Sf9 insect cells (baculovirus), for both p85 and the receptor
Protocol: FIG. 1. Inhibition of binding of p85 to HGF/SF receptor by tyrosine-phosphorylated peptides. Recombinant HGF/SF receptor was purified by immunoprecipitation from baculovirus-infected Sf9 cells using a rabbit polyclonal antiserum and phosphorylated with cold ATP. Lysates of Sf9 cells expressing p85 were pre-incubated with each of the phosphopeptides (10 μM). The lysates were then allowed to associate with immobilized recombinant HGF/SF receptors. Following association the complex was washed and receptor-bound p85 was detected by an in vitro kinase assay, as described in Materials and Methods of Example 4. The phosphopeptides are identified by the number of the amino terminal tyrosine.
FIG. 2. Inhibition of binding of p85 to HGF/SF receptor with different concentrations of tyrosine-phosphorylated peptides. The phosphopeptides which efficiently out-competed p85 binding to the HGF/SF receptor (FIG. 1) were used at increasing concentrations (10 nM, 100 nM, 1 μM from left to right) to define their relative affinities for p85. Conditions of the experiment were as in FIG. 1. Phosphopeptide 1365 was used as a negative control for p85 interaction.
In vitro association experiments. Sf9 cells expressing the recombinant HGF/SF receptor (approximately 4×10^6 cells/point) were lysed 36 hours after infection in buffer A (10 mM Tris-HCl buffer pH 7.5, 10% glycerol, 1% Triton X-100, 150 mM NaCl, 5 mM EDTA), supplemented with 0.2 mM phenyl-methylsulfonyl fluoride, 1 μg/ml leupeptin, 0.1 TIU/ml aprotinin and 1 μg/ml pepstatin. Lysates were clarified at 15,000×g at 4° C. for 15 minutes and the supernatants immunoprecipitated after 2 hours incubation with anti-Met antibodies coupled to Protein A-Sepharose. Immunocomplexes were washed three times with buffer A, once with buffer B (10 mM Tris-HCl pH 7.4, 100 mM NaCl, 1 mM EDTA) and once with buffer C (25 mM 4-(2-hydroxyethyl)-1-piperazine-ethanesulfonic acid (HEPES) buffer pH 7.2, 100 mM NaCl, 5 mM MgCl2). Samples were pre-phosphorylated by incubation for 15 minutes at 25° C. in buffer C with 10 μM unlabelled ATP and then washed three times with cold buffer A supplemented with 1 mM sodium ortho-vanadate. Association between the immobilized receptor and the baculovirus-expressed p85 was carried out as previously described (Bardelli, A., et al., Oncogene 7: 1973-1978 (1992)). For the association experiments with the PI 3-kinase holoenzyme three days serum-starved A549 cells (approx. 2×10^6 cells/point) were used as a source of PI 3-kinase. A549 cells were Dounce-homogenized in MOPS buffer (20 mM 3-(N-morpholino)propanesulfonic acid) (pH 7.5), 1 mM MgCl2, 0.1 mM EDTA, 200 mM sucrose, 1 mM sodium ortho-vanadate), supplemented with 0.2 mM phenylmethylsulfonyl fluoride, 1 μg/ml leupeptin, 0.1 TIU/ml aprotinin and 1 μg/ml pepstatin. Homogenates were centrifuged at 100,000×g for 20 minutes at 4° C. When checking for the ability of phosphopeptides to block the association with the receptor, cell lysates were pre-incubated with the phosphopeptides for 1 hour at 4° C. prior to incubation with the immobilized recombinant HGF/SF receptor. Following association, immunocomplexes were washed three times with buffer A, twice with buffer D (0.5M LiCl, 100 mM Tris-HCl pH 7.6), and twice with buffer B.
The presence of the p85 subunit of the PI 3-kinase in the receptor immunoprecipitate was determined by: i) labelling of the receptor and associated proteins with [γ-^32 P]ATP by in vitro kinase assay; ii) Western immunoblotting; iii) PI 3-kinase activity assay.
In vitro kinase assay. Receptor-associated proteins were labelled in 20 μl of buffer C, in the presence of 10 μCi [γ-^32 P]ATP (specific activity 7,000 Ci/Mm; Amersham) at 25° C. for 15 minutes. The reaction was stopped by adding 1 ml of ice-cold Buffer A without protease inhibitors. Samples were washed three times with cold buffer A. The labelled immunocomplexes were eluted from Protein A-Sepharose in boiling Laemmli buffer. […]

[2] = test system: N- and C-SH2 domains of p85; assay: BIAcore inhibition of binding of GST-SH2 domains to immobilized PDGF receptor phosphopeptide Y751; design: species or system bovine; conditions: range of phosphopeptide concentrations; 25° C.; FIG. 7
Protocol: FIG. 7. Evaluation of the relative affinities of phosphotyrosine 1313, 1349 and 1356 for the N- and C- SH2 domains of p85. Affinities were determined by biospecific interaction analysis with the BIAcore instrument (Jonsson, U., Fagerstam, L., Roos, H., Ronnberg, J., Sjolander, Stenber, E., Stahlberg, R. Urbaniczky, C., Ostlin, H., and Malmquist. 1991. Surface plasmon reasonance and microfluidics for real time biospecific interaction analysis. Biotechniques 11: 520-527; Jonsson, U. and M. Malmquist. 1992. Real time biospecific analysis. The integration of surface plasmon reasonance detection, general biospecific interface chemistry and microfluidics into one analytical system p. 291-336. In F. Turner (ed), Advances in Biosensors, vol. 2 JAI Press, London; Karlsson, R., Michaelsson, A., and L. Mattsson. 1991. Kinetic analysis of monoclonal antibody-antigen interactions with a new biosensor based analytical system. J. Immunol. Meth. 145: 229-246).
Relative affinities were determined by measuring the ability of the phosphopeptides to inhibit the interaction of the SH2 domains with an immobilized phosphopeptide (DMSKDESVDY*VPMLDMK) (SEQ. ID NO: 26) which includes Y751 in the human PDGF receptor. Panel A and B show the results of these measurements, expressed as % inhibition of binding to phosphopeptide Y751.
GST-SH2 domain fusion proteins. The N- and C-SH2 domains of the bovine PI 3-kinase p85 subunit (amino acids 314-431 and 612-722) were obtained by polymerase chain reaction and cloned into the pGEX-2 bacterial expression vector (Smith, D. B., and Johnson K. S., Gene 67: 31-40 (1988).
Glutathione-S-transferase (GST)-SH2 fusion proteins were purified from bacterial lysates by glutathione affinity chromatography (Panayotou, G., et al. EMBO J., 11: 4261-4272 (1992)). Amino acid analysis on an Applied Biosystems 420A analyzer was used to determine the concentration of the recombinant proteins.
Analysis of the interaction of Y1349 and Y1356 with the p85 N- and C- SH2 domains using the BIAcore. […]

T1 sequence (P23727 whole entry): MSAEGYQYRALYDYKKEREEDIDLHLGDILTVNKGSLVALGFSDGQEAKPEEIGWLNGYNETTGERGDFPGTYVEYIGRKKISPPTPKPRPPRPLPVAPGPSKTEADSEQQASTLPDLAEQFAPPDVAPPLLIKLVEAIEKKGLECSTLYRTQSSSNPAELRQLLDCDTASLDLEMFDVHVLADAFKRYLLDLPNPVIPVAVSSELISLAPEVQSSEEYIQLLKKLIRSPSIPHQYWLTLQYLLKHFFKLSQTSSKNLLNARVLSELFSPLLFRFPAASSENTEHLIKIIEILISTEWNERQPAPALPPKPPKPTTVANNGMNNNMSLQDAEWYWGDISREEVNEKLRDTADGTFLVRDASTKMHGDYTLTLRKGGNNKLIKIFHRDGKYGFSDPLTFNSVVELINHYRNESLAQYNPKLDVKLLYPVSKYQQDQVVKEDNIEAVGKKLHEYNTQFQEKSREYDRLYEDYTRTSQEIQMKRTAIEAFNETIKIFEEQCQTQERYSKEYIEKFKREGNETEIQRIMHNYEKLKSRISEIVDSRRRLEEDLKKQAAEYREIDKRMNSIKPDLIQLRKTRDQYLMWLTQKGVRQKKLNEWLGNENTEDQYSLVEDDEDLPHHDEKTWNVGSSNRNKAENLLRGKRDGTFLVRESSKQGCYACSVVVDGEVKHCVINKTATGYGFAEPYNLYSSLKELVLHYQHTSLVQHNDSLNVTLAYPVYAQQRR

Compound	Inhibition of binding of p85 to HGF/SF receptor [1]	Apparent relative affinity: inhibition of binding of p85 N- and C-SH2 domains to phosphopeptide Y751 [2]
CC(C)[C@H](NC(=O)[C@H](CS)NC(=O)[C@H](CCCCN)NC(=O)[C@@H](NC(=O)[C@H](CC(N)=O)NC(=O)[C@@H](NC(=O)[C@@H](N)Cc1ccc(OP(=O)(O)O)cc1)C(C)C)C(C)C)C(=O)N[C@@H](C)C(=O)O [H-Tyr*-Val-Asn-Val-Lys-Cys-Val-Ala-OH] (HELM PEPTIDE1{[N[C@@H](Cc1ccc(OP(=O)(O)O)cc1)C(=O)[*:2]].V.N.V.K.C.V.A}$$$$V2.0)	efficiently outcompeted p85	inhibit binding of p85 N- and C-SH2 domains to phosphopeptide Y751, but at higher concentrations
CC(C)[C@H](NC(=O)[C@H](Cc1c[nH]cn1)NC(=O)[C@@H](NC(=O)[C@@H](N)Cc1ccc(OP(=O)(O)O)cc1)C(C)C)C(=O)N[C@@H](CC(N)=O)C(=O)N[C@@H](C)C(=O)N[C@H](C(=O)N[C@@H](Cc1ccc(O)cc1)C(=O)O)[C@@H](C)O [H-Tyr*-Val-His-Val-Asn-Ala-Thr-Tyr-OH] (HELM PEPTIDE1{[N[C@@H](Cc1ccc(OP(=O)(O)O)cc1)C(=O)[*:2]].V.H.V.N.A.T.Y}$$$$V2.0)	efficiently outcompeted p85	inhibit binding of p85 N- and C-SH2 domains to phosphopeptide Y751, but at higher concentrations
